The results in this text go back to US20170240556A1, “BIFLUORODIOXALANE-AMINO-BENZIMIDAZOLE KINASE INHIBITORS FOR THE TREATMENT OF CANCER, AUTOIMMUNEINFLAMMATION AND CNS DISORDERS” (4SC DISCOVERY GMBH, priority 2012, published 2017).

The structures appear in SMILES notation. A value given as a limit tells only on which side of the number the result lay.

In assay [1] the target is Casein kinase 1 delta (CSKN1D) (Homo sapiens, UniProt P48730). Nature of the assay: Casein kinase assay, CK1 delta. The format is biochemical. The following applies: recombinant CSKN1D 5 nM, ATP 10 μM.
Chain of Casein kinase 1 delta (CSKN1D) (P48730 whole entry): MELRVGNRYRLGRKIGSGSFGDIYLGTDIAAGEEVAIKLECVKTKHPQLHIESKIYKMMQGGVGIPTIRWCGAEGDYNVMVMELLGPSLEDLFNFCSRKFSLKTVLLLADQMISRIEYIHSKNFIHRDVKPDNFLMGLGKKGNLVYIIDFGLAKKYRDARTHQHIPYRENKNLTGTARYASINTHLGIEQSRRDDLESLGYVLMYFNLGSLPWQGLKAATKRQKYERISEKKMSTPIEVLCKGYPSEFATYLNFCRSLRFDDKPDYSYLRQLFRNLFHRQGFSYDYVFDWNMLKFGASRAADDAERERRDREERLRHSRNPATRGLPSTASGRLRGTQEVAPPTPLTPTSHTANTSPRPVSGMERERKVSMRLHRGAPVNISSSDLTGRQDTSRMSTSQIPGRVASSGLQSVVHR
In assay [2] the test system is Wnt/β-catenin signaling pathway. Nature of the assay: Wnt reporter assay (CellSensor LEF/TCF-bla FreeStyle 293F cells). The following applies: Homo sapiens; LEF/TCF-bla 293F cells, LiCl and mWnt3a stimulation. The format is cell-based. On the procedure: The Wnt reporter assay was performed in stably transfected human HEK293 cells. Wnt signaling was induced by administration of Wnt3a protein and read out by β-Lactamase mediated cleavage of CCF4-AM and subsequent fluorescent detection.
CellSensor LEF/TCF-bla FreeStyle 293F cells (invitrogen #K1677) contain a beta-lactamase reporter gene under control of the β-catenin/LEF/TCF binding elements stably integrated into FreeStyle 293F cells. This cell line can be used to detect antagonists of the Wnt/β-catenin signaling pathway when stimulated by mouse Wnt3a or LiCl. The detection of beta-lactamase is possible with LiveBLAzer FRET—B/G Loading Kit (invitrogen #K1095) with CCF4-AM as subtrate.
Culture Medium: DMEM Medium +10% dialyzed FBS (PAN 2102-P290310), +1% NEAA (PAA M11-003), +1% P/S (Penicillin/Streptomycin, PAA P11-010) +25 mM HEPES (PAA S11-001), +5 μg/ml Blasticidin (PAA P05-017).
Cells (CellSensor LEF/TCF-bla FreeStyle 293F, invitrogen K1677) were split with Culture Medium to reach a confluence at the beginning of the assay of 80-90%.
At start of the assay, cells were harvested from culture and resuspend in assay medium at density of 0,66*10̂6 cells/ml. Subsequently, 60μ1 cell suspension were pipetted in each well of a Poly-D-Lysine 96 well Plate (BD #354640, vertical rows are marked 1 through 12, horizontal lanes are marked A through H),
Plates were subsequently incubated at 37° C. for at least 2 h.
To stimulate with Wnt3a, overnight prestimulation of Wnt signalling pathway with LiCl is necessary. Subsequently, an 8M aqueous LiCl solution was diluted 1:200 in assay medium, and 30 μl of said diluted LiCl solution was plated into the appropriate wells (see below pipetting scheme). Plates were then incubated at 37° C. over night.
Subsequently, compounds and controls were prepared as follows: mWnt3a (R&D 1324-WN, dissolved in PBS+0.1% BSA to 40 μg/ml) was diluted 1:100 in assay medium (=400 ng/ml). Compounds (Cpd) were diluted to a concentration of 10 mM in DMSO to prepare dilution series in assay medium (final concentrations 30 μM, 10 μM, 3 μM, 1 μM, 0.3 μM, 0.1 μM, 0.03 μM and 0.01 μM), which were pipetted into the appropriate wells (see below pipetting scheme). For each dilution of each compound, 3 replicates were tested. Final DMSO concentration was 0.3%.
LiCl and mWnt3a stimulated cells were used as High control (HC), unstimulated cells were used as low control, a blank was prepared from cell free medium plus mWnt3a, and a functional control was prepared with a known Wnt inhibitor (e.g. PKF118-310), final concentrations were as above.
Subsequently, the well was incubated for 5 h at 37° C.
At t=23 hours, FRET reagent mix (Loading Kit with CCF4-AM, Life Technologies #K1096) was prepared; per plate: 138 μl Solution B, 13.8 μl FRET-reagent, and 2300 μl Solution C. 24 μl FRET reagent mix were plated to each well, subsequently plates were incubated for at least 2 h in the dark (it is possible to incubate over night). Subsequently, plates were measured in the BMG FluorStar® plate reader at an emission waveltengths of 460 and 520 nm and with an excitation wavelength of 405 nm.
To determine potential cytotoxicity of the compounds, plates were centrifuge and the supernatant was discarded by dumping the plates. Subsequently, 100 μl Opti-MEM and 50 μl ViaLight (Lonza #LT07-321) Lysis Buffer were added to each well, followed by incubation for 10 min at room temperature (25° C.). Subsequently, 100 μl ViaLight reagent were added to each well, followed by incubation for 2 min at room temperature (25° C.) in the dark. Optionally, 200 μl of the obtained suspension were transferred to a white 96 well plate. The luminescence was measured with a Tecan Ultra plate reader.
For orientation: In a reporter assay the amount or activity of a reporter protein is the signal.

For assay [3], the target named is Casein kinase 1 epsilon (CSKN1E) (Homo sapiens, UniProt P49674). Nature of the assay: Casein kinase assay, CK1 epsilon. Particulars: recombinant CSKN1E 30 nM, ATP 10 μM. The format is biochemical.
Chain of Casein kinase 1 epsilon (CSKN1E) (P49674 whole entry): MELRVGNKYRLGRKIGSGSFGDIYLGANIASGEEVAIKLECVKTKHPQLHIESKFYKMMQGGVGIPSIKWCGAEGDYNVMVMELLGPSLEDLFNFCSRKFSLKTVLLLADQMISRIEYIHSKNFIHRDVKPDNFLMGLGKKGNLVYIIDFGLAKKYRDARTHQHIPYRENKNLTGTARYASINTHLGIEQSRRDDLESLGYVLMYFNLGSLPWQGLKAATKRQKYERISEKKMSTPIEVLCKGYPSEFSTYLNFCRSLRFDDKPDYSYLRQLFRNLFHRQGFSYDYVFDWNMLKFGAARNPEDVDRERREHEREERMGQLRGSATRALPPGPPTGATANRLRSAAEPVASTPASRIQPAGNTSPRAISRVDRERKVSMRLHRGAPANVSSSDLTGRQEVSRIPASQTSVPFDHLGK
The subject of assay [4] is Hedgehog signaling pathway. Nature of the assay: Hedgehog reporter assay (Gli Reporter - NIH3T3 Cell Line). The format is cell-based. Particulars: Mus musculus; Gli reporter NIH3T3 cells, murine SHH stimulation, 24 h; read-out: HH Assay. The procedure: In order to investigate the potency of test compounds to inhibit the Hedgehog signaling pathway, a Gli-Reporter assay was performed.
The “Gli Reporter—NIH3T3 Cell Line” contains the firefly luciferase gene under the control of Gli responsive elements stably integrated into murine NIH3T3 cells (cells purchased from Amsbio). The luciferase expression correlates with activation of the hedgehog signaling pathway. This cell line is validated for its response to stimulation with murine Sonic Hedgehog and to treatment with inhibitors of the hedgehog signaling pathway. A multiplexed viability assay was used to discriminate inhibition on the pathway activity from cell toxicity.
Growth Medium: DMEM, 10% Calf Serum, 1% Penicillin/Streptomycin 500 μg/ml Geneticin (G418 Stock 50 mg/ml).
25.000 cells per well were seeded into a white 96 well plate in 100 μl growth medium and incubated over night at 37° C. and 5% CO2. After removing the supernatant the test compounds and controls (known GLI inhibitor, e.g. GANT-61) were added in different concentrations in a final volume of 45 μl and incubated for 1 h at 37° C. and 5% CO2. For the stimulation of the Hedgehog pathway 5 μl of 10 μg/ml concentrated murine sonic hedgehog (SHH) was added to the cells. A final concentration of 1 μg/ml mSHH and 0.1% DMSO was reached per well. After incubation for 24 h at 37° C. the cells were investigated for viability and reporter activity.
Viability: For the determination of the viability of the treated cells the CellTiter-Fluor Kit from Promega was used. Essentially, only proteases of viable cells are able to cleave the cell-permeant substrate Gly-Phe-AFCoumarin (GF-AFC). By this cleavage the fluorescent AFC is set free and can be detected in a fluorescence reader. For this assay 10 μl of GF-AFC substrate (CellTiter-Fluor, Promega #G6082) was diluted in 2 ml assay buffer from the CellTiter-Fluor Kit and 10 μl of this dilution was added per well to the cells and incubated for 30 min at 37° C. The fluorescence was measured with excitation at 380-400 nm and emission at 505 nm.
Reporter activity: The firefly luciferase reporter activity was detected with the ONE-Glo™ Luciferase Assay System from Promega. For this assay 50 μl ONE-Glo luciferase reagent (Promega #E6120, contains cell lysis buffer and luciferin) was added to each well and incubated at room temperature for 5 min. Luminescence was detected in a plate reader and served as a degree for reporter activity.

On to `COc1cc(OC)cc(C(=O)Nc2nc3cc4c(cc3[nH]2)OC(F)(F)O4)c1` [Compound 1B, N-(2,2-difluoro-5H-[1,3]dioxolo[4′,5′:4,5]benzo[1,2-d]imidazol-6-yl)-3,5-dimethoxybenzamide], for which the IC50 in assay [1] is < 200 nM; in assay [2] it was < 5 µM; in assay [3] it was < 200 nM.
For `O=C(Nc1nc2cc3c(cc2[nH]1)OC(F)(F)O3)c1cccc(-c2nccs2)c1` [Compound 2B, N-(2,2-difluoro-5H-[1,3]dioxolo[4′,5′:4,5]benzo[1,2-d]imidazol-6-yl)-3-(thiazol-2-yl)benzamide], the IC50 in assay [1] was < 200 nM; in assay [2], < 5 µM.
In the case of `COc1cc(C(=O)Nc2nc3cc4c(cc3[nH]2)OC(F)(F)O4)ccc1N` [Compound 9B, 4-amino-N-(2,2-difluoro-5H-[1,3]dioxolo[4′,5′:4,5]benzo[1,2-d]imidazol-6-yl)-3-methoxybenzamide], the IC50 in assay [1] was < 200 nM; in assay [2], < 5 µM; in assay [4], ≤ 500 nM.
For `Cc1nc(-c2cccc(C(=O)Nc3nc4cc5c(cc4[nH]3)OC(F)(F)O5)c2)no1` [Compound 137, N-(2,2-difluoro-5H-[1,3]dioxolo[4′,5′:4,5]benzo[1,2-d]imidazol-6-yl)-3-(5-methyl-1,2,4-oxadiazol-3-yl)benzamide], the IC50 in assay [1] is < 200 nM; in assay [2] it was < 5 µM; in assay [3], < 200 nM; in assay [4], 500 to 1000 nM.
Regarding `O=C(Nc1nc2cc3c(cc2[nH]1)OC(F)(F)O3)c1cccc(-c2ncc[nH]2)c1` [Compound 140, N-(2,2-difluoro-5H-[1,3]dioxolo[4′,5′:4,5]benzo[1,2-d]imidazol-6-yl)-3-(1H-imidazol-2-yl)benzamide], the IC50 was < 200 nM in assay [1], < 5 µM in assay [2], < 200 nM in assay [3] and 500 to 1000 nM in assay [4].
As for `Cc1nnnn1-c1cccc(C(=O)Nc2nc3cc4c(cc3[nH]2)OC(F)(F)O4)c1` [Compound 148, N-(2,2-difluoro-5H-[1,3]dioxolo[4′,5′:4,5]benzo[1,2-d]imidazol-6-yl)-3-(5-methyl-1H-tetrazol-1-yl)benzamide], the IC50 is < 200 nM in assay [1], < 5 µM in assay [2] and < 200 nM in assay [3].
With `O=C(Nc1nc2cc3c(cc2[nH]1)OC(F)(F)O3)c1cccc(-n2cnnn2)c1` [Compound 149, N-(2,2-difluoro-5H-[1,3]dioxolo[4′,5′:4,5]benzo[1,2-d]imidazol-6-yl)-3-(1H-tetrazol-1-yl)benzamide], the IC50 in assay [1] was < 200 nM; in assay [2], 5 to 20 µM; in assay [3], < 200 nM; in assay [4], 1000 to 15000 nM.
